Measurements reported in patent US20240418704A1, “EPIGENETIC TARGETS IN CLONAL HEMATOPOIESIS” (Memorial Sloan-Kettering Cancer Center, priority 2021, published 2024).

System: HSPCs co-cultured with BMECs
Assay: BMEC co-culture system: cell-type specific differentiation readout in response to small molecules
Format: cell-based, murine
Details: Cd11b+Gr1+, Lin neg, GMP, MEP and LSK cells after contacting the cells with the agent, FIGS. 4A-4C
Text: FIGS. 4A-4C. BMEC co-culture system can be used to readout cell-type specific dependencies in response to small molecules and single guide RNAs (sgRNAs).
A platform was adopted whereby primary murine HSPCs are co-cultured with bone marrow endothelial cells that allow for maintenance and expansion of HSPCs (FIG. 1). […] Thus, the adopted HSPC-BMEC co-culture platform is a robust system to study genetically defined murine HSPCs with CH genomic modifications.

Compound: Cc1nc(Nc2ncc(C(=O)Nc3c(C)cccc3Cl)s2)cc(N2CCN(CCO)CC2)n1 [Dasatanib]
- effect on differentiation (percentage of heme-expression and cell differentiation): inhibits differentiation
